In patent US9340532B2, “Methods and compositions for inhibiting CNKSR1” (PHUSIS THERAPEUTICS, INC., priority 2012, dated 2016):

Tests used:
CNK1 PH-domain (CNKSR1) = target: T1, CNK1 PH-domain (CNKSR1) (Homo sapiens, UniProt Q969H4); test: SPR binding assay (Biacore T100), CNK1 PH-domain
T1 construct: The PH-domain His-fusion proteins (CNK1 and AKT1) were expressed and immobilized on a NTA chip; made in house
T1 sequence (Q969H4 403-502 limits assumed): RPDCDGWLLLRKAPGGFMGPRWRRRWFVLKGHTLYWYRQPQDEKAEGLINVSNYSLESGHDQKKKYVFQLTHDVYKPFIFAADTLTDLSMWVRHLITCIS
How it was run: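 His-tagged CNK1 PH-domain was captured on an NTA chip to ≤10,000 RU. Small-molecule analytes were injected at 50 μM to 0.010 μM at 30 μL/min, with 1-5% (v/v) DMSO in samples and running buffer. Binding was measured by surface plasmon resonance.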

[1] = target: T2, membrane colocalisation of CNKSR1 and mutant-KRas (Homo sapiens, UniProt Q969H4); test: Confocal imaging of CNKSR1 / mutant KRas colocalisation; assay type: cell-based; conditions: FIG. 12
T2 construct: fluorescent protein (GFP or mRFP); expressed in transfected cells; host or cells: HEK293T
T2 sequence (Q969H4 1-720): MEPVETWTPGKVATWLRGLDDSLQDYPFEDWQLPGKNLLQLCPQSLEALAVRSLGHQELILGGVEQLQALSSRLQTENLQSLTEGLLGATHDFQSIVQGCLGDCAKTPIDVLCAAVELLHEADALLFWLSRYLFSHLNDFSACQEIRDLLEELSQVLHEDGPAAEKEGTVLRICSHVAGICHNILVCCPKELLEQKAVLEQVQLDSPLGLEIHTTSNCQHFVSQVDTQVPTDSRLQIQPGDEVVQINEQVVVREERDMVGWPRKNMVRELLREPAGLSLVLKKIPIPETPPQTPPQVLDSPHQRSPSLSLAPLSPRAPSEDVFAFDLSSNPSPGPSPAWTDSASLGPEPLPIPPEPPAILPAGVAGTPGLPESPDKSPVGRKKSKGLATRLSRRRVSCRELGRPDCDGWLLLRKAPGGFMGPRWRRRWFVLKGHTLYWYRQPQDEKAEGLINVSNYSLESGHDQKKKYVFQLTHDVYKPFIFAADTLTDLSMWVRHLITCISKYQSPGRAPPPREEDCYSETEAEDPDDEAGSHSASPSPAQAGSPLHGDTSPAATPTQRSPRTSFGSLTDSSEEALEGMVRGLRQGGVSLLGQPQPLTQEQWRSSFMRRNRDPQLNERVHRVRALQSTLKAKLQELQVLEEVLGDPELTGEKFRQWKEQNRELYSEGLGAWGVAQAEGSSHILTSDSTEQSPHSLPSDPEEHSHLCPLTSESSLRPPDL
Procedure: HEK293T cells were co-transfected with CNK and either wild type or G12D mutant KRAS. Twenty-four hours post-transfection, cells were seeded on glass coverslips and allowed to grow a further 24 h and then serum deprived overnight. Cells were fixed with 4% (w/v) paraformaldehyde pH 8.0 for 20 min at room temperature. Following 6-7 washes with PBS (pH 8.0) the coverslip was mounted onto a slide with mounting medium (0.1% p-phenylenediamine/75% glycerol in PBS at pH 7.5-8.0). Confocal laser scanning microscopy was performed with a Leica SP5 confocal microscope system with 63× oil-immersion objective (numerical aperture NA=1.4), a line scan speed of 600 Hz, with image size of 1024×1024 pixels. GFP was excited with an argon-visible light laser tuned to 488 nm, mRFP were excited with a […] tuned to 543 nm GFP and RFP fluorescence emissions were collected using a photomultiplier tube via 514/10 nm and 595/10 nm band selections respectively.

[2] = target: T3, direct binding of CNKSR1 to mut-KRAS (Homo sapiens, UniProt Q969H4); test: Fluorescence lifetime imaging microscopy (FLIM); assay type: cell-based; conditions: FIG. 13, FLIM
T3 construct: expressed in transfected cells
T3 sequence (Q969H4 1-720): T2 sequence (Q969H4 1-720)
Procedure: FLIM experiments were carried out using a Leica TCP SP5 inverted advanced confocal microscope system with internal photomultiplier tube (PMT) detector for TCSPC (time-correlated single-photon counting). The sample was excited with a tunable femtosecond (fs) titanium-sapphire laser with repetition rate of 80 MHz and pulse width less then 80 fs (Spectral Physics, Mai Tai BB). The wavelength used for two-photon excitation was 930 nm and the fluorescence was detected through a 525±25 nm interference filter. Images were obtained with oil-immersion objective (numerical aperture NA=1.4), a line scan speed of 400 Hz, with image size of 512×512 pixels. For FLIM analysis the pixels were reduced to 256×256. FLIM data was collected using Becker & Hickl SPC830 data and image acquisition card for TCSPC.

Kd (CNK1 PH-domain (CNKSR1); Table 6, read-out: CNKS KD): 3.2 µM
Surface Plasmon Resonance CNKSR1 binding (RU max) (CNK1 PH-domain (CNKSR1); date 11 26 13): 5.019 RU * 100/Da
Surface Plasmon Resonance CNKSR1 stability (RU max post-injection) (CNK1 PH-domain (CNKSR1); date 11 26 13): 0.761 RU * 100/Da
Surface Plasmon Resonance CNKSR1 binding (RU max) (CNK1 PH-domain (CNKSR1); date 12 09 13): 0.205 RU * 100/Da
Surface Plasmon Resonance CNKSR1 stability (RU max post-injection) (CNK1 PH-domain (CNKSR1); date 12 09 13): 0.798 RU * 100/Da
membrane colocalisation of CNKSR1 and mutant-KRas at the plasma membrane [1]: blocking
total mutant KRas protein in the cell [1]: lower
direct binding of CNKSR1 to mut-KRAS in cells [2]: inhibit
SMILES: CCOC(=O)Cc1nn(Cc2nc(-c3ccc(C)cc3)cs2)c(=O)c2ccccc12 [Compound 7]
